Source: patent publication US20250367166A1, “NEXT GENERATION DIPROVOCIMS THAT ACTIVATE THE INNATE AND ADAPTIVE IMMUNE RESPONSE” (The Scripps Research Institute, priority 2022, published 2025)
Like-named read-outs stand apart in the source and are kept apart here.

How the values were obtained:
TLR1/TLR2 [1] = biological target: TLR1/TLR2 (Homo sapiens, UniProt O60603+Q15399); assay: TNF-α release from PMA-differentiated human THP-1 cells (ELISA); conditions: for Emax: THP-1, 4 h, read-out: Efficacy (magnitude) of response versus diprovocim-1 (100%), THP-1;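 as to all read-outs here: cells exposed to graded compound concentrations for 4 h, TNF-α quantified in supernatant, LPS as positive and DMSO as negative control, values are duplicate means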
Procedure: THP-1 (American Type Culture Collection) cells, a human monocytic leukemia cell line, were differentiated by treatment with 100 nM PMA (Sigma) in Roswell Park Memorial Institute (RPMI) cell culture medium [RPMI containing 10% vol/vol FBS (Gemini Bio Products), 1% penicillin and streptomycin (Life Technologies)] for 24 h. After that, the cells were washed with PBS and cultured in fresh RPMI cell culture medium for 24 h before use in studies. PMA-differentiated THP-1 cells were seeded onto 96-well plates at 0.5×10^5 cells per well and treated with systematically varied concentrations of the candidate compounds (dissolved in DMSO, and the final assay DMSO concentration (0.1%) was kept constant in all experiments) for 4 h. Ultra-pure LPS (dissolved in H2O, Enzo Life Sciences) was assessed alongside the compounds as a positive control and DMSO treated control was used as a negative control. Human TNF-α in the supernatants was measured by ELISA (eBioscience). This assay was used for establishing dose-response curves and measured EC50's. EC50's were calculated by Graphpad Prism. All data is the mean of duplicates and SD is within +10% of mean.

TLR1/TLR2 [2] = biological target: TLR1/TLR2 (Mus musculus, UniProt Q9EPQ1+Q9QUN7); assay: TNF-α release from thioglycolate-elicited mouse peritoneal macrophages (ELISA); conditions: for Emax: 4 h, read-out: Efficacy (magnitude) of response versus diprovocim-1 (100%), mouse macrophages
[3] = read-out: EC50 (nM) (THP-1): EC50 TNF-α release from human THP-1 cells, Table 3
[4] = read-out: EC50 (nM) (mouse): EC50 TNF-α release from mouse macrophages, Table 3

Sequence of TLR1/TLR2 (Homo sapiens, UniProt O60603+Q15399) (Q15399 25-786): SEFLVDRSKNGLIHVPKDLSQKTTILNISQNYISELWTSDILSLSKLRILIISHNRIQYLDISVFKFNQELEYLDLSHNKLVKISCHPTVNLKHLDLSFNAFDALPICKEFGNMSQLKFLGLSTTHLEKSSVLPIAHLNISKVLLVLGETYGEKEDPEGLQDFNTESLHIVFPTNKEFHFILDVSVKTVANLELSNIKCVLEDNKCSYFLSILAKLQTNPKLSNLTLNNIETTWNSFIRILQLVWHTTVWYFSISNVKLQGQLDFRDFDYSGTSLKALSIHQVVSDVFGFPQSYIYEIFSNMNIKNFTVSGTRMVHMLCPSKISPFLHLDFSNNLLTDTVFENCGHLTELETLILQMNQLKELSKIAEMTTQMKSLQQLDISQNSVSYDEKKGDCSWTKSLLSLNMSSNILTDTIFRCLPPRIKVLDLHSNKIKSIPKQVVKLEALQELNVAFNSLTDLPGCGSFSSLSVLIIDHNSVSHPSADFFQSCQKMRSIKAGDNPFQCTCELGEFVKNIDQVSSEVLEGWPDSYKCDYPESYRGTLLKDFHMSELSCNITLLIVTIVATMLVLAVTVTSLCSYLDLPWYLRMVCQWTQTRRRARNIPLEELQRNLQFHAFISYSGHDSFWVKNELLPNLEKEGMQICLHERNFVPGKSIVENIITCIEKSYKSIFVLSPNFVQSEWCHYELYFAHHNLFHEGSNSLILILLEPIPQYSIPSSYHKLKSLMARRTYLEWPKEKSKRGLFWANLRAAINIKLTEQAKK
Sequence of TLR1/TLR2 (Homo sapiens, UniProt O60603+Q15399) (O60603 21-784): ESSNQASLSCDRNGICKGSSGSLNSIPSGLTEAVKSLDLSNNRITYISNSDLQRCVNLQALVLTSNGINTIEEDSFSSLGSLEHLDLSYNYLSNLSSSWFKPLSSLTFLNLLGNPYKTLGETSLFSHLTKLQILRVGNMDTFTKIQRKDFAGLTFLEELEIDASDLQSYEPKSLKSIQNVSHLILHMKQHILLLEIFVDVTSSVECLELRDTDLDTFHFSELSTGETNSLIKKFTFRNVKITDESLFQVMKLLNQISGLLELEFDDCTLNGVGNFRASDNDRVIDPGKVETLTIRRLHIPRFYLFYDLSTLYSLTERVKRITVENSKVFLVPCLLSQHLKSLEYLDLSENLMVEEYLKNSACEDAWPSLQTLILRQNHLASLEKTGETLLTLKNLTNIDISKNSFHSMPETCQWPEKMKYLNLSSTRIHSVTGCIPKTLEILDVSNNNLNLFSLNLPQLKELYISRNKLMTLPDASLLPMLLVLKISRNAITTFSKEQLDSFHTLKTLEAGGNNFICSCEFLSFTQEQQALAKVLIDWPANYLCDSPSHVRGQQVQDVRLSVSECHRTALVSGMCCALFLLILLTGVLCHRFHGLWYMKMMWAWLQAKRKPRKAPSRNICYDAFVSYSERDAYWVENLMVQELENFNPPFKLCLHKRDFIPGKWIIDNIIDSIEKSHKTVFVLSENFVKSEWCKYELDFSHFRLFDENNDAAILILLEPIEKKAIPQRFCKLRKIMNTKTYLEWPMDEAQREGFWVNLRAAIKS
Sequence of TLR1/TLR2 (Mus musculus, UniProt Q9EPQ1+Q9QUN7) (Q9EPQ1 26-795): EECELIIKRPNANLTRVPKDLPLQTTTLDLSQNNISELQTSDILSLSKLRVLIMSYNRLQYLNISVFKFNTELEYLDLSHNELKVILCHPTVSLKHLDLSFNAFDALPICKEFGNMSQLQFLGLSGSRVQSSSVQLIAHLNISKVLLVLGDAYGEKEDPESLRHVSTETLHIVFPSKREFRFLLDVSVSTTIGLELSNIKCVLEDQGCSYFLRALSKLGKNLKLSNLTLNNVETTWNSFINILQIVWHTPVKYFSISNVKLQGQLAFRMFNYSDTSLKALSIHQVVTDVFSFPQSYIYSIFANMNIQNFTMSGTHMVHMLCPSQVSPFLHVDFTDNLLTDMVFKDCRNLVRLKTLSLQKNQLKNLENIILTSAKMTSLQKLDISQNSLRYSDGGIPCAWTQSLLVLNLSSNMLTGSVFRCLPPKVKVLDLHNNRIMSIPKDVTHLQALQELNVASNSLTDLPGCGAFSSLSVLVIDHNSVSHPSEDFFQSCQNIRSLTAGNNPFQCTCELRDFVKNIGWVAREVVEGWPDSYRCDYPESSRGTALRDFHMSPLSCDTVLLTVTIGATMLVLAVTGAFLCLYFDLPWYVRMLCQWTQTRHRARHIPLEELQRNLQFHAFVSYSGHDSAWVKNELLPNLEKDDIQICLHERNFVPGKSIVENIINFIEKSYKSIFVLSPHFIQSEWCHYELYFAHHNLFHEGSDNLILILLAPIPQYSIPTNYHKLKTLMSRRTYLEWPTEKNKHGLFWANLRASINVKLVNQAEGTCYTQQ
Sequence of TLR1/TLR2 (Mus musculus, UniProt Q9EPQ1+Q9QUN7) (Q9QUN7 25-784): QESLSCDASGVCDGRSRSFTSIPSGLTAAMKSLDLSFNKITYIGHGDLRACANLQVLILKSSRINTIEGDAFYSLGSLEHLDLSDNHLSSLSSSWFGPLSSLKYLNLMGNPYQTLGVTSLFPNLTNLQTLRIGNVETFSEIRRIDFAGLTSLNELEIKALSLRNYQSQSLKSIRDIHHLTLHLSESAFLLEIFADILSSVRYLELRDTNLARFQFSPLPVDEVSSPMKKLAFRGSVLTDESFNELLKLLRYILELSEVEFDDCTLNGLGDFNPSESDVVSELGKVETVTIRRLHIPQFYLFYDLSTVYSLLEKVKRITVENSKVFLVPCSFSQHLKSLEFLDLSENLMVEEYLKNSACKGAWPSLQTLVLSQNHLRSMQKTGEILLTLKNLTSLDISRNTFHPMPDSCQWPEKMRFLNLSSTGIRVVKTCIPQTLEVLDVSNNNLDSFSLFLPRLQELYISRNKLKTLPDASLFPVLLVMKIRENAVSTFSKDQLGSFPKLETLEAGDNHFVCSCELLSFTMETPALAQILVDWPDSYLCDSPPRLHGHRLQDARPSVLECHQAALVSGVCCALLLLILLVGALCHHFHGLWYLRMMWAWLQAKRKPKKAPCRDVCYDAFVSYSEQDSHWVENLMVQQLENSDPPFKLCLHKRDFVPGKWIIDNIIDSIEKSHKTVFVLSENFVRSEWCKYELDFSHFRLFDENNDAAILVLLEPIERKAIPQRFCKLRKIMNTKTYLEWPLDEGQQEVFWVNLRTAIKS

| SMILES | Emax (TLR1/TLR2 [1]) [%] | EC50 (TLR1/TLR2 [1]; [3]) [nM] | Emax (TLR1/TLR2 [2]) [%] | EC50 (TLR1/TLR2 [2]; [4]) [nM] | EC50 (TLR1/TLR2 [1]) [nM] | EC50 (TLR1/TLR2 [2]) [nM] |
| --- | --- | --- | --- | --- | --- | --- |
| CC(C)(C)C(=O)NCC(=O)OCCCCCCCCCCCCNC(=O)[C@@H]1CN(C(=O)c2ccc(C(=O)N3C[C@@H](C(=O)N[C@H]4C[C@@H]4c4ccccc4)[C@H](C(=O)N[C@H]4C[C@@H]4c4ccccc4)C3)cc2)C[C@H]1C(=O)N[C@H]1C[C@@H]1c1ccccc1 [Compound 42, 12-((3S,4S)-1-(4-((3S,4S)-3,4-Bis(((1S,2R)-2-phenylcyclopropyl)carbamoyl)pyrrolidine-1-carbonyl)benzoyl)-4-(((1S,2R)-2-phenylcyclopropyl)carbamoyl)pyrrolidine-3-carboxamido)-dodecyl 2-pivalamidoacetate] | 110 | 1.8 | 110 | 6.2 | – | – |
| NCC(=O)OCCCCCCCCCCCCNC(=O)[C@@H]1CN(C(=O)c2ccc(C(=O)N3C[C@@H](C(=O)N[C@H]4C[C@@H]4c4ccccc4)[C@H](C(=O)N[C@H]4C[C@@H]4c4ccccc4)C3)cc2)C[C@H]1C(=O)N[C@H]1C[C@@H]1c1ccccc1 [Compound 43, 12-((3S,4S)-1-(4-((3S,4S)-3,4-Bis(((1S,2R)-2-phenylcyclopropyl)carbamoyl)pyrrolidine-1-carbonyl)benzoyl)-4-(((1S,2R)-2-phenylcyclopropyl)carbamoyl)pyrrolidine-3-carboxamido)dodecyl glycinate] | 100 | 0.07 | 100 | 0.75 | 0.05 to 0.2 | 0.7 to 5 |
| CN(C)CC(=O)OCCCCCCCCCCCCNC(=O)[C@@H]1CN(C(=O)c2ccc(C(=O)N3C[C@@H](C(=O)N[C@H]4C[C@@H]4c4ccccc4)[C@H](C(=O)N[C@H]4C[C@@H]4c4ccccc4)C3)cc2)C[C@H]1C(=O)N[C@H]1C[C@@H]1c1ccccc1 [Compound 44, 12-((3S,4S)-1-(4-((3S,4S)-3,4-Bis(((1S,2R)-2-phenylcyclopropyl)carbamoyl)pyrrolidine-1-carbonyl)benzoyl)-4-(((1S,2R)-2-phenylcyclo-propyl)carbamoyl)pyrrolidine-3-carboxamido)-dodecyl 2-(dimethylamino)acetate] | 100 | 0.05 | 140 | 4.7 | 0.05 to 0.2 | 0.7 to 5 |
| O=C(CO)OCCCCCCCCCCCCNC(=O)[C@@H]1CN(C(=O)c2ccc(C(=O)N3C[C@@H](C(=O)N[C@H]4C[C@@H]4c4ccccc4)[C@H](C(=O)N[C@H]4C[C@@H]4c4ccccc4)C3)cc2)C[C@H]1C(=O)N[C@H]1C[C@@H]1c1ccccc1 [Compound 45, 12-((3S,4S)-1-(4-((3S,4S)-3,4-Bis(((1S,2R)-2-phenylcyclopropyl)carbamoyl)pyrrolidine-1-carbonyl)benzoyl)-4-(((1S,2R)-2-phenylcyclo-propyl)carbamoyl)pyrrolidine-3-carboxamido)dodecyl 2-hydroxyacetate] | 100 | 0.2 | 140 | 0.7 | 0.05 to 0.2 | 0.7 to 5 |
| O=C(COCc1ccccc1)OCCCCCCCCCCCCNC(=O)[C@@H]1CN(C(=O)c2ccc(C(=O)N3C[C@@H](C(=O)N[C@H]4C[C@@H]4c4ccccc4)[C@H](C(=O)N[C@H]4C[C@@H]4c4ccccc4)C3)cc2)C[C@H]1C(=O)N[C@H]1C[C@@H]1c1ccccc1 [Compound 46, 12-((3S,4S)-1-(4-((3S,4S)-3,4-Bis(((1S,2R)-2-phenylcyclopropyl)carbamoyl)pyrrolidine-1-carbonyl)benzoyl)-4-(((1S,2R)-2-phenylcyclopropyl)-carbamoyl)pyrrolidine-3-carboxamido)-dodecyl 2-(benzyloxy)acetate] | 130 | 0.06 | 220 | 5.3 | 0.05 to 0.2 | 0.7 to 5 |
| CC(C)(C)OCC(=O)OCCCCCCCCCCCCNC(=O)[C@@H]1CN(C(=O)c2ccc(C(=O)N3C[C@@H](C(=O)N[C@H]4C[C@@H]4c4ccccc4)[C@H](C(=O)N[C@H]4C[C@@H]4c4ccccc4)C3)cc2)C[C@H]1C(=O)N[C@H]1C[C@@H]1c1ccccc1 [Compound 47, 12-((3S,4S)-1-(4-((3S,4S)-3,4-Bis(((1S,2R)-2-phenylcyclopropyl)carbamoyl)pyrrolidine-1-carbonyl)benzoyl)-4-(((1S,2R)-2-phenylcyclopropyl)-carbamoyl)pyrrolidine-3-carboxamido)dodecyl 2-(tert-butoxy)acetate] | 100 | 0.65 | 230 | 5 | – | – |

Now from value to compound:

| Emax (TLR1/TLR2 [1]) [%] | EC50 (TLR1/TLR2 [1]; [3]) [nM] | Emax (TLR1/TLR2 [2]) [%] | EC50 (TLR1/TLR2 [2]; [4]) [nM] | EC50 (TLR1/TLR2 [1]) [nM] | EC50 (TLR1/TLR2 [2]) [nM] | SMILES |
| --- | --- | --- | --- | --- | --- | --- |
| 100 | 3 | 220 | 6.3 | – | – | CC(C)(C)OC(=O)NCCOCCCCCCCCCCCCNC(=O)[C@@H]1CN(C(=O)c2ccc(C(=O)N3C[C@@H](C(=O)N[C@H]4C[C@@H]4c4ccccc4)[C@H](C(=O)N[C@H]4C[C@@H]4c4ccccc4)C3)cc2)C[C@H]1C(=O)N[C@H]1C[C@@H]1c1ccccc1 [Compound 48, tert-Butyl (2-((12-((3S,4S)-1-(4-((3S,4S)-3,4-bis(((1S,2R)-2-phenylcyclopropyl)carbamoyl)-pyrrolidine-1-carbonyl)-benzoyl)-4-(((1S,2R)-2-phenylcyclopropyl)carbamoyl)pyrrolidine-3-carbox-amido)dodecyl)oxy)ethyl)carbamate] |
| 100 | 15 | 270 | 1.8 | – | – | CC(C)(C)OC(=O)COCCCCCCCCCCCCNC(=O)[C@@H]1CN(C(=O)c2ccc(C(=O)N3C[C@@H](C(=O)N[C@H]4C[C@@H]4c4ccccc4)[C@H](C(=O)N[C@H]4C[C@@H]4c4ccccc4)C3)cc2)C[C@H]1C(=O)N[C@H]1C[C@@H]1c1ccccc1 [Compound 49, tert-Butyl 2-((12-((3S,4S)-1-(4-((3S,4S)-3,4-bis(((1S,2R)-2-phenylcyclopropyl)carbamoyl)-pyrrolidine-1-carbonyl)benzoyl)-4-(((1S,2R)-2-phenylcyclopropyl)carbamoyl)pyrrolidine-3-carboxamido)dodecyl)oxy)acetate] |
| 90 | 0.2 | 90 | 6 | – | – | COC(=O)CNC(=O)OCCCCCCCCCCCCNC(=O)[C@@H]1CN(C(=O)c2ccc(C(=O)N3C[C@@H](C(=O)N[C@H]4C[C@@H]4c4ccccc4)[C@H](C(=O)N[C@H]4C[C@@H]4c4ccccc4)C3)cc2)C[C@H]1C(=O)N[C@H]1C[C@@H]1c1ccccc1 [Compound 50, Methyl 2-((((12-((3S,4S)-1-(4-((3S,4S)-3,4-bis-(((1S,2R)-2-phenylcyclopropyl)carbamoyl)pyrrolidine-1-carbonyl)benzoyl)-4-(((1S,2R)-2-phenylcyclopropyl)-carbamoyl)pyrrolidine-3-carboxamido)dodecyl)oxy)-carbonyl)amino)acetate] |
| 110 | 0.25 | 230 | 0.85 | – | – | O=C(NCCCCCCCCCCCCOCc1ccc([N+](=O)[O-])cc1)[C@@H]1CN(C(=O)c2ccc(C(=O)N3C[C@@H](C(=O)N[C@H]4C[C@@H]4c4ccccc4)[C@H](C(=O)N[C@H]4C[C@@H]4c4ccccc4)C3)cc2)C[C@H]1C(=O)N[C@H]1C[C@@H]1c1ccccc1 [Compound 51, (3S,4S)-1-(4-((3S,4S)-3,4-Bis(((1S,2R)-2-phenylcyclo-propyl)carbamoyl)pyrrolidine-1-carbonyl)-benzoyl)-N^3-(12-((4-nitrobenzyl)oxy)dodecyl)-N^4-((1S,2R)-2-phenyl-cyclopropyl)pyrrolidine-3,4-dicarboxamide] |
